Data published in patent US5523297A, “Inhibition of excessive phospholipase A2 activity and/or production by non-antimicrobial tetracyclines” (The Research Foundation of State University of New York, priority 1995, dated 1996).
Like-named read-outs stand apart in the source and are kept apart here.

Tests used:
Format in all cases: biochemical
[1] = biological target: T1, porcine pancreatic PLA2 (Sus scrofa, UniProt P00592); assay: Inhibition of porcine pancreatic PLA2, E. coli assay
T1 construct: radiolabelled E. coli membrane hydrolysis assay
Method: (§1) Six different chemically-modified tetracyclines, including CMT-1 (4-dedimethylaminotetracycline), CMT-2 (tetracyclinonitrile), CMT-3 (6-demethyl-6-deoxy-4-dedimethylaminotetracycline), CMT-4 (4-de-dimethylamino-7-chloro-tetracycline), CMT-5 (pyrazole analog) and CMT-6 (4-hydroxy-4-dedimethylaminotetracycline), were examined for their ability to inhibit PLA2 activity in vitro. The sources of PLA2 that were tested included recombinant human PLA2, human pancreatic and porcine pancreatic PLA2 and Naja naja PLA2. […] Various concentrations of CMTs, ranging from 5-100 μg/ml, were preincubated with the different PLA2 enzymes for 30 minutes and the mixture was tested for PLA2 activity using a known E. coli assay method (see Arthritis and Rheumatism, 34 Supp. 9: p. S160 (abst C167)).
(§2) A chemically-modified tetracycline, 4-dedimethylamino-7-dimethylaminotetracycline (CMT-10), was examined for its ability to inhibit PLA2 activity in vitro. The sources of PLA2 that were tested included were recombinant human PLA2 (snpPLA2), human pancreatic and porcine pancreatic PLA2 and Naja naja PLA2. […] Various concentrations of CMT-10, ranging from 5-100 μg/ml, were preincubated with the different PLA2 enzymes for 30 minutes and the mixture was tested for PLA2 activity using a known E. coli assay method (see Arthritis and Rheumatism, 34 Supp. 9: p. S160 (abst C167)).
(§3) In particular, [^14 C]Oleic acid-labelled Escherichia coli (strain K12 C600) were used as the substrate. This substrate has been characterized with respect to phospholipid composition and distribution of radiolabel. Reaction mixtures contained 10 mg bovine serum albumin, 2 mM CaCl2, 2.8×10^8 radiolabelled E. coli and 0.1M Tris-HCl buffer, pH 7.5 in a total volume of 1.5 ml. Reaction mixtures were incubated at 37° C. for 30 min. The reaction was terminated by filtration through a 0.45 μm Millipore filter, thereby retaining unhydrolysed E. coli membranes, and allowing the [^14 C]oleic acid bound to the BSA carrier, released as a result of PLA2 hydrolysis, to pass through the filter. Assays were performed in duplicate and values shown represent the mean of two determinations with a SD<5% of the mean. Assays were performed in substrate excess and enzyme activities were corrected for non-enzymatichydrolysis. One unit of PLA2 activity is defined as the hydrolysis of 56 pmol of phospholipid substrate (representing 1% of total E. coli phospholipid) in 30 min at 37° C.

[2] = biological target: T2, recombinant human PLA2 (snpPLA2) (Homo sapiens, UniProt P14555); assay: Inhibition of recombinant human PLA2, radiolabelled E. coli assay
T2 sequence (P14555 21-144): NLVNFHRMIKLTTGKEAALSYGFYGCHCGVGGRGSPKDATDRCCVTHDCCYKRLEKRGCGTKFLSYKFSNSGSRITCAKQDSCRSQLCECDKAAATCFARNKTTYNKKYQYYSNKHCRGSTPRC
Method: as §1, §2, §3

[3] = biological target: T3, human pancreatic PLA2 (Homo sapiens, UniProt P04054); assay: Inhibition of human pancreatic PLA2, E. coli assay
T3 construct: radiolabelled E. coli membrane hydrolysis assay
Method: as §1, §2, §3

[4] = concentration required to inhibit 50% of PLA2, 30 min preincubation, read-out: IC50 (converted)
[5] = concentrations of 25 μg/ml or greater

T3 sequence (P04054 23-148): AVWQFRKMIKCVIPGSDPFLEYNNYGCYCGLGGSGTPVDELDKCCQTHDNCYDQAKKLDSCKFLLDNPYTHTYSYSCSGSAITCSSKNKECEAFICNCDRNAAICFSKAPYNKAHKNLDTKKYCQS
T1 sequence (P00592 23-146): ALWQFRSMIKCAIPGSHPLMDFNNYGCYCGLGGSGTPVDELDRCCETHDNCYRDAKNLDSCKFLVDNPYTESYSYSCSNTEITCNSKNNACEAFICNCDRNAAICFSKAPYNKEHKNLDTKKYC

| Structure (SMILES) | inhibition of porcine pancreatic PLA2 [1] | IC50 [2, 4] | PLA2-inhibitory activity [2, 5] | inhibition of human pancreatic PLA2 [3] | also measured |
| --- | --- | --- | --- | --- | --- |
| CC1(O)c2cccc(O)c2C(=O)C2=C(O)C3(O)C(=O)C(C(N)=O)=C(O)C(O)C3CC21 (centres unmarked) [CMT-6, 4-hydroxy-4-dedimethylaminotetracycline] | inhibit | 40.7 µM | significant PLA2 -inhibitory activity | inhibit |  |
| CC1(O)c2cccc(O)c2C(=O)C2=C(O)C3(O)C(=O)C(C(N)=O)=C(O)CC3CC21 (centres unmarked) [CMT-1, 4-dedimethylaminotetracycline] | inhibit |  | significant PLA2 -inhibitory activity | inhibit | IC50 [2]: 92.2 µM |
| CC1(O)c2c(Cl)ccc(O)c2C(=O)C2=C(O)C3(O)C(=O)C(C(N)=O)=C(O)CC3CC21 (centres unmarked) [CMT-4, 4-de-dimethylamino-7-chloro-tetracycline] | inhibit | 96.4 µM | significant PLA2 -inhibitory activity | inhibit |  |
| CN(C)C1C(=O)C(C#N)=C(O)C2(O)C(=O)C3=C(O)c4c(O)cccc4C(C)(O)C3CC12 (centres unmarked) [CMT-2, tetracyclinonitrile] |  |  |  |  | PLA2-inhibitory activity ([2]; even at the highest concentrations tested (range 5-100 μg/ml)): lacked any PLA2 -inhibitory activity |
| CN(C)c1ccc(O)c2c1C(C)(O)C1CC3CC(O)=C(C(N)=O)C(=O)C3(O)C(O)=C1C2=O (centres unmarked) [CMT-10, 4-dedimethylamino-7-dimethylaminotetracycline] |  | 67.5 µM | significant PLA2 -inhibitory activity | inhibit | inhibition at 5 µg/mL ([2]; CMT-10 5 μg/ml): 4 ± 4%; inhibition at 10 µg/mL ([2]; CMT-10 10 μg/ml): 12 ± 2%; inhibition at 25 µg/mL ([2]; CMT-10 25 μg/ml): 45 ± 1%; inhibition at 50 µg/mL ([2]; CMT-10 50 μg/ml): 75 ± 2%; inhibition at 100 µg/mL ([2]; CMT-10 100 μg/ml): 87 ± 2%; inhibition of PLA2 activity ([2]; final concentration of 5 and 10 μg/ml): did not exhibit substantial inhibition; inhibition at 30 µg/mL ([3]; concentration of 30 μg/ml): 66% |
| NC(=O)C1=C(O)C2(O)C(=O)C3=C(O)c4c(O)cccc4CC3CC2CC1=O (centres unmarked) [CMT-3, 6-demethyl-6-deoxy-4-dedimethylaminotetracycline] | inhibit |  | significant PLA2 -inhibitory activity | inhibit |  |
